Measured values reported in patent US20080188528A1, “Modulators of C3a receptor and methods of use thereof” (priority 2006, published 2008).
Counter-ions that a name gives are not always drawn.

target: T1, human C3a receptor (C3aR) (Homo sapiens, UniProt Q16581); assay: Inhibition of human [125I]-C3a binding to human C3a receptor (SPA, membranes of HEK293 cells expressing recombinant C3aR); details: 0.1 nM [125I]-C3a, 3 hours at room temperature; Table 6
T1 construct: expressed in transfected cells
T1 sequence (Q16581 1-482): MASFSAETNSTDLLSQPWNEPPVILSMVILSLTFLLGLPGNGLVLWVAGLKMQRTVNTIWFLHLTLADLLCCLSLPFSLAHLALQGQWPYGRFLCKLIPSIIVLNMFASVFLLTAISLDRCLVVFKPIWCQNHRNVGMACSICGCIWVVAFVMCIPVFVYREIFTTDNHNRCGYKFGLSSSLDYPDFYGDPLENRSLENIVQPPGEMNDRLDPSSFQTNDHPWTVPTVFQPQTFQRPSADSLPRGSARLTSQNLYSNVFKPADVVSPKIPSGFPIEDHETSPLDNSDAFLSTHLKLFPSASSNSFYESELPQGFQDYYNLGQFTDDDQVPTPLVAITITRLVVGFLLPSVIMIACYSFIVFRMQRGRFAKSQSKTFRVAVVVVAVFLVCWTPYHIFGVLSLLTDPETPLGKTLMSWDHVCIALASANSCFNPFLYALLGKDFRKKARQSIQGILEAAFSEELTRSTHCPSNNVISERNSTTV
Outline: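 HEK293 C3aR membranes were pre-coupled to WGA SPA beads and incubated 3 h at room temperature with 0.1 nM [125I]-C3a in HEPES pH 7.4 buffer containing 0.25% BSA and 0.2% CHAPS, DMSO ≤1%. Nonspecific binding was defined with 1 μM unlabeled C3a. IC50 came from nonlinear least-squares fitting.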

IC50 | SMILES
0.05 to 0.5 µM | CC(=N)NCCC[C@H](NC(=O)c1cccn(Cc2ccc(Br)cc2)c1=O)C(=O)O [Compound 110, (2S)-2-({[1-(4-bromobenzyl)-2-oxo-1,2-dihydropyridin-3-yl]carbonyl}amino)-5-(ethanimidoylamino)pentanoic acid•TFA]
< 0.05 µM | N=C(N)NC(=O)CC[C@H](NC(=O)c1ccc(C(c2ccccc2)c2ccccc2)cc1)C(=O)O [Compound 111, (2S)-5-Carbamimidamido-2-({[4-(diphenylmethyl)phenyl]carbonyl}amino)-5-oxopentanoic acid]
0.5 to 20 µM | CC(=N)NCCC[C@H](NC(=O)c1cccn(Cc2ccc(C(F)(F)F)cc2)c1=O)C(=O)O [Compound 113, (2S)-5-(ethanimidoylamino)-2-[({2-oxo-1-[4-(trifluoromethyl)benzyl]-1,2-dihydropyridin-3-yl}carbonyl)amino]pentanoic acid•TFA]
0.05 to 0.5 µM | CC(=N)NCCC[C@H](NC(=O)c1cccn(Cc2cccc(I)c2)c1=O)C(=O)O [Compound 114, (2S)-5-(ethanimidoylamino)-2-({[1-(3-iodobenzyl)-2-oxo-1,2-dihydropyridin-3-yl]carbonyl}amino)pentanoic acid•TFA]
0.05 to 0.5 µM | CC(=N)NCCC[C@H](NC(=O)c1cccn(Cc2cc(F)cc(F)c2)c1=O)C(=O)O [Compound 117, (2S)-2-({[1-(3,5-difluorobenzyl)-2-oxo-1,2-dihydropyridin-3-yl]carbonyl}amino)-5-(ethanimidoylamino)pentanoic acid•TFA]
0.5 to 20 µM | N=C(NCCC[C@H](NC(=O)c1ccc(C(c2ccccc2)c2ccccc2)s1)C(=O)O)c1ccccc1 [Compound 120, (2S)-2-({[5-(diphenylmethyl)thiophen-2-yl]carbonyl}amino)-5-{[imino(phenyl)methyl]amino}pentanoic acid•TFA]
0.5 to 20 µM | N=C(NCCC[C@H](NC(=O)c1ccc(C(c2ccccc2)c2ccccc2)s1)C(=O)O)C1CC1 [Compound 121, (2S)-5-{[cyclopropyl(imino)methyl]amino}-2-({[5-(diphenylmethyl)thiophen-2-yl]carbonyl}amino)pentanoic acid•TFA]
0.5 to 20 µM | CC(=N)NCCC[C@H](NC(=O)c1ccc(C(c2ccccc2Cl)c2ccccc2Cl)s1)C(=O)O [Compound 126, (2S)-2-[({5-[bis(2-chlorophenyl)methyl]thiophen-2-yl}carbonyl)amino]-5-(ethanimidoylamino)pentanoic acid•TFA]
0.05 to 0.5 µM | CC(=N)NCCC[C@H](NC(=O)c1ccc(C(c2cccs2)c2cccs2)s1)C(=O)O [Compound 127]
0.5 to 20 µM | CC(=N)NCCC[C@H](NC(=O)c1ccc(C(c2cccc(C(F)(F)F)c2)c2cccc(C(F)(F)F)c2)s1)C(=O)O [Compound 130, (2S)-2-{[(5-{Bis[3-(trifluoromethyl)phenyl]methyl}thiophen-2-yl)carbonyl]amino}-5-(ethanimidoylamino)pentanoic acid]
0.5 to 20 µM | CC(C)C(=N)NCCC[C@H](NC(=O)c1ccc(C(c2ccccc2)c2ccccc2)s1)C(=O)O [Compound 132, (2S)-2-({[5-(diphenylmethyl)thiophen-2-yl]carbonyl}amino)-5-[(2-methylpropanimidoyl)amino]pentanoic acid•TFA]
0.05 to 0.5 µM | N=CNCCC[C@H](NC(=O)c1ccc(C(c2ccccc2)c2ccccc2)s1)C(=O)O [Compound 133, (2S)-2-({[5-(diphenylmethyl)thiophen-2-yl]carbonyl}amino)-5-[(iminomethyl)amino]pentanoic acid•TFA]
0.05 to 0.5 µM | C/C(=N\O)NCCC[C@H](NC(=O)c1ccc(C(c2ccccc2)c2ccccc2)s1)C(=O)O [Compound 136, (2S)-2-({[5-(diphenylmethyl)thiophen-2-yl]carbonyl}amino)-5-{[1-(hydroxyamino)ethylidene]amino}pentanoic acid•TFA]

More lines, now with the values behind:

SMILES | IC50
CC(=N)NCCC[C@H](NC(=O)c1ccc(C(c2ccccc2)c2ccccc2)cc1)C(=O)O [Compound 108, (2S)-2-({[4-(Diphenylmethyl)phenyl]carbonyl}amino)-5-(ethanimidoylamino)pentanoic acid] | 0.5 to 20 µM
CC(=N)NCCC[C@H](NC(=O)c1cccn(Cc2cccc(Br)c2)c1=O)C(=O)O [Compound 109, (2S)-2-({[1-(3-bromobenzyl)-2-oxo-1,2-dihydropyridin-3-yl]carbonyl}amino)-5-(ethanimidoylamino)pentanoic acid•TFA] | 0.05 to 0.5 µM
CC(=N)NCCC[C@H](NC(=O)c1cccc(C(c2ccccc2)c2ccccc2)c1)C(=O)O [Compound 112, (2S)-2-({[3-(Diphenylmethyl)phenyl]carbonyl}amino)-5-(ethanimidoylamino)pentanoic acid] | 0.05 to 0.5 µM
CC(=N)NCCC[C@H](NC(=O)c1cccn(Cc2cc(Br)cc(Br)c2)c1=O)C(=O)O [Compound 115, (2S)-2-({[1-(3,5-dibromobenzyl)-2-oxo-1,2-dihydropyridin-3-yl]carbonyl}amino)-5-(ethanimidoylamino)pentanoic acid•TFA] | < 0.05 µM
CC(=N)NCCC[C@H](NC(=O)c1cccn(Cc2cc(Cl)cc(Cl)c2)c1=O)C(=O)O [Compound 116, (2S)-2-({[1-(3,5-dichlorobenzyl)-2-oxo-1,2-dihydropyridin-3-yl]carbonyl}amino)-5-(ethanimidoylamino)pentanoic acid•TFA] | < 0.05 µM
CCCC(=N)NCCC[C@H](NC(=O)c1ccc(C(c2ccccc2)c2ccccc2)s1)C(=O)O [Compound 118, (2S)-5-(butanimidoylamino)-2-({[5-(diphenylmethyl)thiophen-2-yl]carbonyl}amino)pentanoic acid•TFA] | 0.5 to 20 µM
N=C(NCCC[C@H](NC(=O)c1ccc(C(c2ccccc2)c2ccccc2)s1)C(=O)O)c1ccccn1 [Compound 119, (2S)-2-({[5-(diphenylmethyl)thiophen-2-yl]carbonyl}amino)-5-{[imino(pyridin-2-yl)methyl]amino}pentanoic acid•TFA] | 0.5 to 20 µM
COc1ccn(C(c2ccccc2)c2ccccc2)c(=O)c1C(=O)N[C@@H](CCCNC(C)=N)C(=O)O [Compound 122, (2S)-2-({[1-(diphenylmethyl)-4-methoxy-2-oxo-1,2-dihydropyridin-3-yl]carbonyl}amino)-5-(ethanimidoylamino)pentanoic acid•TFA] | 0.5 to 20 µM
CCOC(=O)CC(=N)NCCC[C@H](NC(=O)c1ccc(C(c2ccccc2)c2ccccc2)s1)C(=O)O [Compound 123, (2S)-2-({[5-(diphenylmethyl)thiophen-2-yl]carbonyl}amino)-5-[(3-ethoxy-3-oxopropanimidoyl)amino]pentanoic acid•TFA] | 0.5 to 20 µM
CC(=N)NCCC[C@H](NC(=O)c1ccc(C(c2ccc(C)cc2)c2ccc(C)cc2)s1)C(=O)O [Compound 124, (2S)-2-[({5-[bis(4-methylphenyl)methyl]thiophen-2-yl}carbonyl)amino]-5-(ethanimidoylamino)pentanoic acid•TFA] | 0.5 to 20 µM
CC(=N)NCCC[C@H](NC(=O)c1ccc(C(c2ccc(Cl)cc2)c2ccc(Cl)cc2)s1)C(=O)O [Compound 125, (2S)-2-[({5-[bis(4-chlorophenyl)methyl]thiophen-2-yl}carbonyl)amino]-5-(ethanimidoylamino)pentanoic acid•TFA] | 0.05 to 0.5 µM
CC(=N)NCCC[C@H](NC(=O)c1ccc(C(c2ccc(F)cc2)c2ccc(F)cc2)s1)C(=O)O [Compound 128, (2S)-2-[({5-[bis(4-fluorophenyl)methyl]thiophen-2-yl}carbonyl)amino]-5-(ethanimidoylamino)pentanoic acid•TFA] | 0.05 to 0.5 µM
CC(=N)NCCC[C@H](NC(=O)c1ccc(C(c2cccc(F)c2)c2cccc(F)c2)s1)C(=O)O [Compound 129, (2S)-2-[({5-[bis(3-fluorophenyl)methyl]thiophen-2-yl}carbonyl)amino]-5-(ethanimidoylamino)pentanoic acid•TFA] | 0.05 to 0.5 µM
CC(=N)NCCC[C@H](NC(=O)c1ccc(C(c2cccc(Cl)c2)c2cccc(Cl)c2)s1)C(=O)O [Compound 131, (2S)-2-[({5-[bis(3-chlorophenyl)methyl]thiophen-2-yl}carbonyl)amino]-5-(ethanimidoylamino)pentanoic acid•TFA] | < 0.05 µM
CC(=N)Nc1cccc([C@H](NC(=O)c2ccc(C(c3ccccc3)c3ccccc3)s2)C(=O)O)c1 [Compound 134, (2S)-({[5-(Diphenylmethyl)thiophen-2-yl]carbonyl}amino)[3-(ethanimidoylamino)phenyl]ethanoicacid] | 0.5 to 20 µM
CC(=N)Nc1ccc([C@H](NC(=O)c2ccc(C(c3ccccc3)c3ccccc3)s2)C(=O)O)cc1 [Compound 135, (2S)-({[5-(Diphenylmethyl)thiophen-2-yl]carbonyl}amino)[4-(ethanimidoylamino)phenyl]ethanoicacid] | 0.5 to 20 µM

test system: not given; assay: not given; details: asthma model; cited from earlier work

SMILES | airway inflammation
NC(N)=NCCC[C@H](NC(=O)COCC(c1ccccc1)c1ccccc1)C(=O)O [SB-290157] | reduction of airway inflammation

same assay, conditions: in vivo; cited from earlier work

SMILES | neutrophil recruitment | paw edema
NC(N)=NCCC[C@H](NC(=O)COCC(c1ccccc1)c1ccccc1)C(=O)O [SB-290157] | inhibition of neutrophil recruitment | decreased paw edema
